Experimental data reported in US9708340B2, “Urea derivatives and their use as fatty-acid binding protein (FABP) inhibitors” (Hoffmann-La Roche Inc., priority 2013, dated 2017).

Assays:
mice under HF diet = conditions: cited from earlier work
ob/ob mice = conditions: cited from earlier work
ApoE KO mice = conditions: cited from earlier work
human FABP5 (huFABP5) = human FABP5 (huFABP5) (Homo sapiens (Human), UniProt Q01469); assay: Tb TR-FRET assay, binding of Bodipy labeled fatty acid to His6 tagged huFABP5; conditions: 50 nM FABP protein, […] Bodipy labeled fatty acid; read-out: IC50 h-fabp5-ecoli-r
Chain of human FABP5 (huFABP5) (Q01469 whole entry): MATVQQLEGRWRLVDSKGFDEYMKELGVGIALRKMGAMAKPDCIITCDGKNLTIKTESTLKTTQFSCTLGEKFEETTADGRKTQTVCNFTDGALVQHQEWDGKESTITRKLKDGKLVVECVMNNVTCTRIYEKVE

human FABP4 (huFABP4) = human FABP4 (huFABP4) (Homo sapiens (Human), UniProt P15090); assay: Tb TR-FRET assay, binding of Bodipy labeled fatty acid to His6 tagged huFABP4; conditions: 50 nM FABP protein, […] Bodipy labeled fatty acid; read-out: IC50 h-fabp4-ecoli-r
Chain of human FABP4 (huFABP4) (P15090 whole entry): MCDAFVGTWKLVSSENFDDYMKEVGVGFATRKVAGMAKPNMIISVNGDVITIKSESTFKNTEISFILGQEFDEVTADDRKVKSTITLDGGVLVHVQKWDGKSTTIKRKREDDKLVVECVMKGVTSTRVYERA

Question: Which “insulin and glucose tolerance” value (mice under HF diet) does the source give for `O=C(O)[C@H]1CCCN1C(=O)Nc1ccccc1Oc1ccccc1` [Compound 3] here?
Answer: The value was “no improvement”.

Question: What about the “plasma triglyceride and free fatty acid” value (mice under HF diet) of the same compound?
Answer: Its value is “reduction”.

Question: Which results are given for `CCc1c(-c2ccccc2)c(-c2ccccc2)nn1-c1ccccc1-c1cccc(OCC(=O)O)c1` [BMS309403]?
Answer: glucose uptake in muscle and adipose (ob/ob mice; clamp study in ob/ob mice): increased; hepatic glucose production (ob/ob mice; clamp study in ob/ob mice): reduction; body weight and energy consumption (ob/ob mice; ob/ob mice): no change; hepatic steatosis (ob/ob mice; ob/ob mice): reduction; atherosclerotic placques formation (ApoE KO mice): decrease

Question: With `O=C(O)[C@H]1CCCN1C(=O)Nc1cc(Cl)ccc1-c1ccsc1` [Example 52, (R)-1-(5-chloro-2-(thiophen-3-yl)phenylcarbamoyl)pyrrolidine-2-carboxylic acid] as the compound, how does the IC50 (human FABP5 (huFABP5)) read?
Answer: The IC50 was greater than 10400 nM.

Question: What about the IC50 (human FABP4 (huFABP4)) of the same compound?
Answer: Its IC50 is 60 nM.

Question: With `O=C(O)[C@H]1CCCN1C(=O)Nc1cc(Cl)ccc1-c1csc2ccccc12` [Example 53, (R)-1-(2-(benzo[b]thiophen-3-yl)-5-chlorophenylcarbamoyl)pyrrolidine-2-carboxylic acid] as the compound, how does the IC50 (human FABP5 (huFABP5)) read?
Answer: Its IC50 is 42200 nM.

Question: And the IC50 (human FABP4 (huFABP4))?
Answer: Its IC50 is 340 nM.
